Data set [1] can be described thus: Ionization of pilocarpine (pKa, pH = pKa + Log10 formula). In kind it is physicochemical. As to conditions: at a pH of from about 7.6 to about 8.6, using the formula. An excerpt:
Conversion of the ionized form to the un-ionized form for pilocarpine is related to pH according to the formula: pH=pKa+Log10 (un-ionized concentration/ionized concentration). When the pH is the same as the pKa, equimolar concentrations of the un-ionized form and ionized form exist. For basic compounds such as pilocarpine, when the pH is one unit higher than the pKa, the ratio of the un-ionized form to the ionized form is 91:9. Similarly, when the pH is two units higher than the pKa, the ratio of un-ionized form to the ionized form is […]. As noted above, the un-ionized form is lipophilic and, therefore, more capable of passing through mucous membranes such as the oral mucosa than the ionized form, which is lipophobic in nature. Accordingly, increasing the pH of the saliva favors conversion of the ionized form into the un-ionized form for basic compounds such as pilocarpine, and the final pH can be determined by making use of the above formula. For pilocarpine, the tri-substituted nitrogen in the imidazole group controls the extent of ionization and the degree of lipophilicity in any given medium. Typically, the nitrogen in the imidazole group imparts a pKa of about 6.6 to the molecule at 37° C.

The conditions of data set [2]: at 37° C., nitrogen in the imidazole group; cited from earlier work.

We go through one compound from patent publication US20080254101A1, “PILOCARPINE COMPOSITIONS AND METHODS OF USE THEREOF” (priority 2004, published 2008).

On to `CC[C@@H]1C(=O)OC[C@@H]1Cc1cncn1C` [pilocarpine], for which the “conversion to an un-ionized form” value in data set [1] was “about 90%”. Moreover, in data set [2], the pKa entry is “about 6.6”.
